How the values were obtained:
[1] = target: T1, Human recombinant enteropeptidase (Homo sapiens, UniProt P98073); test: Human enteropeptidase inhibitory activity (Test Example 1); format: biochemical; settings: 3.3 μM test compound, inhibition rate from fluorescence intensity at 2 hours after the start of the reaction
T1 construct: purchased ITSI-Biosciences LLC #REN-260
How it was run: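 Recombinant human enteropeptidase in 50 mM Tricine pH 8.0, 0.01% Tween 20, 10 mM CaCl2, with a 5FAM/CPQ2-quenched peptide substrate (2.1 μM solution before mixing). Compound came from 1 mM DMSO stock diluted 100-fold in buffer. Fluorescence (ex 485/em 535 nm) at 2 h gave % inhibition versus no-compound and no-enzyme controls.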

[2] = test system: High fat diet-fed (HFD-fed) mice; test: Fecal protein concentration-increasing test using HFD-fed mouse (Test Example 2-1); format: in vivo; settings: male, 19-week old, 10 mg/kg orally, whole feces of first day of administration, average ± standard deviation, six mice
Protocol: (§1) High fat diet-fed (HFD-fed) mice (D12079B diet, male, 19-week old) were orally administered with a 0.5% methyl cellulose suspension containing a test compound (10 mg/kg) (compound administration group, six mice per group) or a 0.5% methyl cellulose suspension (compound non-administration group (vehicle), five mice per group), and whole feces were collected on the first day of administration. Dried feces were dissolved in 0.5 N NaOH, followed by centrifugation at 12,000 rpm. The protein concentration in the supernatant was then quantitatively measured (Lowry method), and the amount of protein contained in 1 g of feces was calculated as the fecal protein concentration (mg/g feces). The average and the standard deviation of each group are shown below.

[3] = test system: Diet-induced obesity (DIO) mice; test: Anti-obesity effect test using DIO mouse (Test Example 3); format: in vivo; settings: male, 32-week old, average ± standard deviation, six mice
Protocol: Diet-induced obesity (DIO) mice (D12079B diet, male, 32-week old) were orally administered with a 0.5% methyl cellulose suspension containing a test compound (10 mg/kg) (compound administration group, six mice per group) or a 0.5% methyl cellulose suspension (compound non-administration group (vehicle), six mice per group) once a day for one week. The averages and the standard deviations of the body weights at the start of administration and after continuous administration for one week are shown below.

[4] = test system: High fat diet-fed (HFD-fed) mice; test: Fecal protein concentration-increasing test using HFD-fed mouse (Test Example 2-2); format: in vivo; settings: male, 47-week old, 10 mg/kg orally, whole feces of first day of administration, average ± standard deviation, five mice
Protocol: as §1, with “47-week” for “19-week”, “five” for “six”, “was” for “was then”

T1 sequence (P98073 whole entry): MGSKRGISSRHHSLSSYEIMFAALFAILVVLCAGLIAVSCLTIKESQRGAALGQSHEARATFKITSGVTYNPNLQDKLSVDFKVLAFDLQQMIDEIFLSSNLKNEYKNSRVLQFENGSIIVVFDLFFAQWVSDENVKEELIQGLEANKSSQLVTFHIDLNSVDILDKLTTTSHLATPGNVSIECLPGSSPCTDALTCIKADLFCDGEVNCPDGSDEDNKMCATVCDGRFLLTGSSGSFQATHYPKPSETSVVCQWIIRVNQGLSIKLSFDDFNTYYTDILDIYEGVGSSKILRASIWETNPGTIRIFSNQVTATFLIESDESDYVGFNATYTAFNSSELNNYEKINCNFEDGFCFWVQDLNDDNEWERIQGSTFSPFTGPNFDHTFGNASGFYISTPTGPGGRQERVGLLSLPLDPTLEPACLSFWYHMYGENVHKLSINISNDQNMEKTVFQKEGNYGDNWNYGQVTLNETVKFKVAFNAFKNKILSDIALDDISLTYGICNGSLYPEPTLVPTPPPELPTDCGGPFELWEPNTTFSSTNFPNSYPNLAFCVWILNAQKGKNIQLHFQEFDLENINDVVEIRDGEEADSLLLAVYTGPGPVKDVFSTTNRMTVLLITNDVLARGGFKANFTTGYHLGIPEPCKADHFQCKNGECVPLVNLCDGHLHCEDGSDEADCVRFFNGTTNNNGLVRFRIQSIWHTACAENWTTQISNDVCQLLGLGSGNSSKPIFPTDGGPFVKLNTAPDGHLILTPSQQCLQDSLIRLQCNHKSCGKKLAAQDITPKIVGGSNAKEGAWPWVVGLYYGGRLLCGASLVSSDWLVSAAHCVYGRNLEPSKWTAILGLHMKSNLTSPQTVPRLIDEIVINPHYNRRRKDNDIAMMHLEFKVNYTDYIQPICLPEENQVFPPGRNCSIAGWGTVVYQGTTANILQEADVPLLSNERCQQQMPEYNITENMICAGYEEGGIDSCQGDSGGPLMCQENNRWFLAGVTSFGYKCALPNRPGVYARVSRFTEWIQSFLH

3.3 μM Inhibition [1] [%] | inhibition at 3.3 µM ([1]; read-out: 3.3 μM Inhibition) [%] | Structure (SMILES) | Fecal protein concentration (mg/g feces) [2] [mg/g feces] | Body Weight (g) After continuous administration for one week ([3]; 10 mg/kg orally once a day for one week) [g] | Body Weight (g) Start of administration ([3]; group given 10 mg/kg orally once a day, baseline) [g] | Fecal protein concentration (mg/g feces) [4] [mg/g feces]
101 |  | N=C(N)Nc1ccc2c(c1)CCCOc1c(cccc1C(=O)N[C@@H](CC(=O)O)C(=O)O)OC2=O [Example 3, N-((10-Carbamimidamido-13-oxo-6,7,8,13-tetrahydrodibenzo[b,f][1,4]dioxecin-4-yl)carbonyl)aspartic acid] | 233.3 ± 35.9 | 41.4 ± 2.2 | 44.5 ± 2.2 | 
 | 99 | N=C(N)Nc1ccc2c(c1)CCCOc1c(ccc(CCC(=O)O)c1C(=O)N(CC(=O)O)Cc1cccc(C(=O)O)c1)OC2=O [Example 145, 3-((((10-Carbamimidamido-3-(2-carboxyethyl)-13-oxo-6,7,8,13-tetrahydrodibenzo[b,f][1,4]dioxecin-4-yl)carbonyl) (carboxymethyl)amino)methyl)benzoic acid] |  |  |  | 201.3 ± 45.3

Source: patent US9975903B2, “Condensed heterocyclic compound” (Takeda Pharmaceutical Company Limited, priority 2014, dated 2018)
